Patent US9133154B2, “Substituted 3-phenylpropylamine derivatives for the treatment of ophthalmic diseases and disorders” (Acucela Inc., priority 2013, dated 2015)
Entries after “also recorded” stand apart in the source; their conditions may differ. Like-named read-outs stand apart in the source and are kept apart here.

Legend:
[1] = system: retinal isomerase activity (recovery of 11-cis-retinal); test: Comparative in vivo murine isomerase assay, dose response; set-up: species or system BALB/c mice; conditions: for Avg. % Inhibition: 11-cis-retinal, drug vs. recovery control, listed as cmpd A
Experimental: (§1) All test compounds were stored at room temperature, dessicated.
On the day prior to dose administration compound A and compound D were weighed into new empty glass vials. The compounds were dissolved in di-water at the concentration of 0.833 mg/mL compound A and 0.892 mg/mL compound D, serially diluted into various concentrations, and stored overnight at 4° C.
56 Male BALB/c mice (Charles River Laboratories) were used for this study. The mice were approximately 8 weeks at the initiation of dosing with an average body weight of 24 grams.
The day prior to dose administration 56 BALB/c mice were placed into a dark room and dark adapted for a minimum of 12 hours prior to dose administration. The mice were maintained in the dark for the duration of the study.
(§2) Each animal was removed from its cage and dosed accordingly to the study design in Table 4 (see below). Each animal was administered 0.1 mL of the appropriate compound or vehicle via oral gavage using a 1 mL syringe fitted with a 23 gauge oral gavage needle. Two hours following dose administration, animals were removed from the dark and exposed to 5000 Lux white light for 10 minutes to photobleach their eyes. Following the completion of the photobleach the animals were returned to the dark for 2 hours to allow for the regeneration of 11-cis-retinal in the eyes. Two hours after photobleaching each animal was euthanized with carbon dioxide followed by cervical dislocation, in the dark under red light. The light control group was euthanized immediately following photobleaching. Immediately following the cervical dislocation both eyes of each animal were removed and transferred into separate tubes, flash frozen in liquid nitrogen and stored in the dark at −80° C. until processing and analysis.
(§3) All sample processing procedures were performed in the dark under red light.
Extracted samples were analyzed using an Agilent 1100 HPLC system according to the procedure outlined in Table 6 (see below)
(§4) HPLC analysis of the eyes measures the peak area units of the 110cis-Ral-Oxime_syn. Signal.
(§5) Data analysis % inhibition (drug vs. recovery control). % control (drug vs. light control), and One-way ANOVA (followed by Tukey's Multiple Comparison) were performed using peak area units and performed by Prism software. Data are represented as mean and standard deviation.

[2] = system: regeneration of 11-cis-retinal; test: Single dose time course in the in vivo isomerase assay at 0.3 mg/kg; set-up: species or system BALB/c mice; conditions: for activity at 0.3 mg/kg: Mus musculus, read-out: Percent Control (Avg. % Inhibition)
Experimental: as §1
The compounds were dissolved in di-water at the concentration of 0.068 mg/mL and stored overnight at 4° C.
52 Male BALB/c mice (Charles River Laboratories) were used for this study. The mice were approximately 8 weeks at the initiation of dosing with an average body weight of 23 grams.
The day prior to dose administration 52 BALB/c mice were placed into a dark room and dark adapted for a minimum of 12 hours prior to dose administration. The mice were maintained in the dark for the duration of the study.
as §2, with “Table 10” for “Table 4”, “appropriate test article” for “appropriate compound”, “vehicle orally” for “vehicle via oral gavage”, “needle. At 2, 4, 6, 8, 16 or 24” for “needle. Two”
as §3
Extracted samples were analyzed using an Agilent 1100 HPLC system according to the procedure outlined in Table 12 (see below)
as §4, §5

[3] = system: isomerase (recovery of 11-cis-retinal after bleaching); test: In vivo murine isomerase assay; conditions: mice, oral gavage
Experimental: The capability of compounds described herein to inhibit isomerase was determined by an in vivo murine isomerase assay. […] The recovery of 11-cis-retinal after bleaching can be used to estimate the activity of isomerase in vivo. Delayed recovery, as represented by lower 11-cis-retinal oxime levels, indicates inhibition of isomerization reaction.
Mice were gavaged with the test compound. […] The mice were allowed to recover 2 hours in the dark. The animals were then sacrificed by carbon dioxide inhalation. Retinoids were extracted from the eye and the regeneration of 11-cis-retinal was assessed at various time intervals.
After the mice were sacrificed, the eyes were immediately removed and placed in liquid nitrogen for storage.
The eyes were placed in 500 μL of bis-tris propane buffer (10 mM, pH˜7.3) and 20 μL of 0.8M hydroxile amine (pH˜7.3). The eyes were cut up into small pieces with small iris scissors and then thoroughly homogenized at 30000 rpm with a mechanical homogenizer (Polytron PT 1300 D) in the tube until no visible tissue remained. 500 μL of methanol and 500 μL of heptane were added to each tube. The tubes were attached to a vortexer so that the contents were mixed thoroughly for 15 minutes in room temperature. The organic phase was separated from the aqueous phase by centrifugation for 10 min at 13K rpm, 4° C. 240 μL of the solution from the top layer (organic phase) was removed and transferred to clean 300 μl glass inserts in HPLC vials using glass pipette and the vials were crimped shut tightly.
The samples were analyzed on an Agilent 1100 HPLC system with normal phase column: SILICA (Beckman Coutlier, dp 5 μm, 4.6 mM×250 mM). […] Loading volume for each sample was 100 μA detection wavelength was 360 nm. The area under the curve for 11-cis retinal oxime was calculated by Agilent Chemstation software and was recorded manually. Data processing was performed using Prizm software.
Positive control mice (no compound administered) were sacrificed fully dark-adapted and the eye retinoids analyzed. Light (bleached) control mice (no compound administered) were sacrificed and retinoids isolated and analyzed immediately after light treatment.
A time course study was performed to determine the isomerase inhibitory activity of the test compound. […] The animals were then “photo-bleached” (5000 Lux white light for 10 minutes) at 2, 4, 8, 16 and 24 hours after dosing, and returned to darkness to allow recovery of the 11-cis-retinal content of the eyes. Mice were sacrificed 2 hours after bleaching, eyes were enucleated, and retinoid content is analyzed by HPLC.
Recovery control mice (vehicle-only treated) were light-treated and left to recover for 2 hours in the dark before sacrifice and analysis. Light control mice (vehicle only treated) were sacrificed for analysis immediately after photo-bleaching.
An in vivo dose response isomerase inhibition study was performed with test compound. […] Recovery and retinoid analysis were performed as described above. Dark control mice were vehicle-only treated, sacrificed fully dark adapted without light treatment, and analyzed. Recovery control mice and light control mice were included in the study as per the initial phase.

[4] = BALB/c mice, single oral dose, 2 hours

IC50 (dose response experiment) [1, 4]: 0.17 mg/kg
SMILES: NCC[C@@H](O)c1cccc(OCC2CCOCC2)c1 [Example 1]
Avg. % Inhibition ([1]; BALB/c mice, oral 0.3 mg/kg, 2 hours, 0.3 mg/kg): 92.4%
Avg. % Inhibition ([1]; BALB/c mice, oral 0.5 mg/kg, 2 hours, 0.5 mg/kg): 99.3%
significance of inhibitory effect on the recovery of 11-cis-retinal vs. recovery control ([1]; BALB/c mice, single oral dose 0.03-3 mg/kg, 2 hours, listed as compound A): statistically significant difference, P<0.001 for 0.3, 0.5, 1 and 3 mg/kg dose levels; also recorded: significant inhibitory effect at 0.3 mg/kg, 0.5 mg/kg, 1 mg/kg and 3 mg/kg dose levels
dose at which 11-cis-retinal recovery was inhibited by 50% [1, 4]: 0.17 mg/kg
times more active than compound D ([1]; by IC50 of the dose response experiment): 3-4 ×
times more active than compound D ([1]; by dose showing nearly 100% inhibition (0.5 vs 3.0 mg/kg)): approximately 6 ×
times more active than compound D ([1]; by inhibition at a dose of 0.3 mg/kg): greater than 10 ×
significance of inhibitory effect on the recovery of 11-cis-retinal vs. recovery control ([2]; BALB/c mice, single oral 0.3 mg/kg, 2, 4, 6, 8, 16 and 24 hours, listed as compound A, 0.3 mg/kg): statistically significant difference, P<0.001, from the recovery control group for the 2, 4 and 6 hour time points; also recorded: not a statistically significant difference, P>0.05 for the 8, 16 and 24 time points; also recorded: significant inhibitory effect at 2, 4 and 6 hours; also recorded: no significant effect on the recovery of 11-cis-retinal at the 8, 16 and 24 hour time points; also recorded: statistically significant from the control group at the 2, 4, and 6 hour time points
activity at 0.3 mg/kg ([2]; BALB/c mice, single oral 0.3 mg/kg, time point 2 hours): 2%
activity at 0.3 mg/kg ([2]; BALB/c mice, single oral 0.3 mg/kg, time point 4 hours): 11.5%
activity at 0.3 mg/kg ([2]; BALB/c mice, single oral 0.3 mg/kg, time point 6 hours): 43.7%
activity at 0.3 mg/kg ([2]; BALB/c mice, single oral 0.3 mg/kg, time point 8 hours): 79.8%
activity at 0.3 mg/kg ([2]; BALB/c mice, single oral 0.3 mg/kg, time point 16 hours): 98.5%
activity at 0.3 mg/kg ([2]; BALB/c mice, single oral 0.3 mg/kg, time point 24 hours): 95.8%
times more active than compound D ([2]; time course experiment, 0.3 mg/kg): greater than 10 ×
% Inhibition ([3]; dose 0.3 mg/kg, time 2 h): 40.2%
% Inhibition ([3]; dose 1 mg/kg, time 2 h): 96.7%
% Inhibition ([3]; dose 1 mg/kg, time 4 h): 92.8%
